From article PMC8351955, “Targeting Mycobacterium tuberculosis response to environmental cues for the development of effective antitubercular drugs” (PLoS Biology, 2021) come the findings set out here.

The structures appear in SMILES notation. ≈ marks a conversion by molar mass, not a printed value. Where “and” joins values, the source holds several entries; their conditions need not be identical. Equal entries are not always repeated. Where two headings read alike, the source gives them in different places.

The inhibition is how much of the control response was suppressed. By solubility (kinetic) is commonly meant solubility judged after dilution from a stock solution rather than from solid.

Series [1] deals with CYP2D6 (Homo sapiens, UniProt P10635). As to the kind of experiment: Human cytochrome P450 inhibition, 2D6. The class given is in vitro ADME. The settings on record: read-out: % inhibition of CYP 2D6.
Sequence of CYP2D6 (P10635 whole entry): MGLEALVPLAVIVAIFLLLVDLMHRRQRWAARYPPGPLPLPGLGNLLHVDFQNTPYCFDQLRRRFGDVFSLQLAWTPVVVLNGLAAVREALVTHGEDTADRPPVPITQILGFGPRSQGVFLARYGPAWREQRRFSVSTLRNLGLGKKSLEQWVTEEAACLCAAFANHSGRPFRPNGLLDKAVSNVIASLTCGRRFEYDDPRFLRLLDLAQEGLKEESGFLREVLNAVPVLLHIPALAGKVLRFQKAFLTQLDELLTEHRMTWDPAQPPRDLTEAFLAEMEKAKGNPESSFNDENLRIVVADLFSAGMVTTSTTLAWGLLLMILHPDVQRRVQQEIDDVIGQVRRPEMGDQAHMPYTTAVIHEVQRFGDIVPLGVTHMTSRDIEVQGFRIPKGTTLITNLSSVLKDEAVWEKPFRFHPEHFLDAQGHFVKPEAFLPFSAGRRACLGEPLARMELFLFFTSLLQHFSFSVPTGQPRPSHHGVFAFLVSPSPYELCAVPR
Experimental: (§1) Assays examining mouse and human liver microsomal stability, kinetic aqueous solubility, mouse and human plasma protein binding and stability, and human cytochrome P450 inhibition characteristics of the compounds were run by BioDuro (San Diego, CA), using standard protocols as previously described [37]. hERG inhibition assays were also performed by BioDuro.
Series [2] concerns WT Mtb (Erdman) in primary murine BMDMs. The experiment in a line: Primary murine bone marrow-derived macrophage infection, CFU. The settings on record: for CFU/ml in BMDMs, average: Fig 1I; for CFU/ml: Fig. 2E, 10 µM. In kind it is cell-based, Mycobacterium tuberculosis.
In series [3] the test system is Mtb growth in J774 macrophage-like cells. As to the kind of experiment: J774 infection in 96-well plates, mKO fluorescence 6 days post-infection. The class given is cell-based, Mycobacterium tuberculosis. The conditions noted are these: for % Growth: Fig. 2D, DMSO = 100. The procedure, abridged:
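J774 cells infected with mKO-expressing log-phase Mtb (40 μl at OD600 = 0.2 per well) and treated with compound at 10 μM final (0.1% DMSO). mKO fluorescence (ex 543/em 565 nm) read at infection and 6 days later at 37 °C, 5% CO2; growth expressed relative to DMSO controls as 100%.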

Series [4] is described as follows: Kinetic aqueous solubility. The class given is physicochemical. The settings on record: pH 7.4 phosphate buffered saline; read-out: kinetic aqueous solubility (S).
Experimental: as §1
Series [5] is described as follows: Mouse liver microsomal stability. In kind it is in vitro ADME. The conditions noted are these: mouse liver microsomes; read-out: half-life (t1/2) in mouse liver microsomes. Background: Liver microsomes are a subcellular fraction often used to study metabolism.
Experimental: as §1
The subject of series [6] is CDC1551(rv2390c′::GFP) reporter Mtb strain. The settings on record: for Normalized % induction: Fig. 2C, DMSO = 100.

As for `CCSc1ncc(CN2CCN(c3nc4ccccc4o3)CC2)cn1` [C6, 2-(4-((2-(ethylthio)pyrimidin-5-yl)methyl)piperazin-1-yl)benzo[d]oxazole], the inhibition at 10 µM in series [1] came out at 10.5%. Besides, the “Effect on bacterial load / Mtb growth in primary murine BMDMs” value in series [2] (10 μM, 8-day infection time course, vs DMSO) was “significant decrease in bacterial load”. Moreover, the “CFU/ml in BMDMs, average” value in series [2] (10 μM, day 2) is given as 153500 CFU/ml; in series [2] (10 μM, day 4), 188500 CFU/ml; in series [2] (10 μM, day 6), 283000 CFU/ml; in series [2] (10 μM, day 8), 322500 CFU/ml. Further, the CFU/ml is 426000 CFU/ml in series [2] (day 2, average); 406000 CFU/ml and 418000 CFU/ml and 454000 CFU/ml in series [2] (day 2, individual replicates); 573333 CFU/ml in series [2] (day 4, average); 580000 CFU/ml and 640000 CFU/ml and 500000 CFU/ml in series [2] (day 4, individual replicates); 746667 CFU/ml in series [2] (day 6, average); 700000 CFU/ml and 660000 CFU/ml and 880000 CFU/ml in series [2] (day 6, individual replicates). Besides, the CFU/ml in series [2] (day 8, average) is 1020000 CFU/ml; in series [2] (day 8, individual replicates) it was 880000 CFU/ml and 1100000 CFU/ml and 1080000 CFU/ml. Besides, the “% growth of Mtb in J774 cells, average” value in series [3] (10 μM compound, 6 days post-infection, DMSO = 100%, Fig 1H) amounted to 40.8112%. For the same molecule, the “Inhibition of Mtb growth in J774 cells” value in series [3] (10 μM, 6 days post-infection) is reported as “Mtb growth inhibition”. Also, the “% Growth” value in series [3] (average of 4 replicates) was 56.2334%; in series [3] (individual replicates), 53.4835% and 56.5013% and 56.5506% and 58.3983%. Besides, the solubility (kinetic) in series [4] was found to be 76.4 µM (≈ 27.2 µg/mL). Besides, in series [5], the half-life came to 48.5 min. Besides, the Normalized % induction in series [6] (average of 3 replicates) was 141.019%; in series [6] (individual replicates), 121.516% and 141.974% and 159.566%. The “Ability to increase rv2390c′::GFP reporter signal in high [Cl−]” value in series [6] (pH 7) is “increased rv2390c′::GFP reporter signal”.
